# Laboratory results from patent US11285156B2, “Substituted piperazines as KRAS G12C inhibitors” (Amgen Inc., priority 2018, dated 2022).
# Read-outs that look alike come from different tables or passages of the source.
# Legend:
# [1] = tested on: Phosphorylation of ERK1/2 in A549 cells; experiment: Phospho-ERK1/2 MSD assay in A549 cells; type: cell-based; conditions: read-out: p-ERK IC50 (2 h, A549; μM), 2 h compound treatment, A549 cells, EGF stimulated
# How it was run: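 Phospho-ERK1/2 was quantified by MSD immunoassay in RIPA lysates of MIA PaCa-2 or A549 cells. Before lysis, cells received 10 ng/mL EGF for 10 min after 2 or 4 h exposure at 37° C. to a compound concentration series.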
# [2] = biological target: GDP-bound KRAS protein (aa 1-169), containing both G12C and C118A amino acid substitutions (Homo sapiens (Human), UniProt P01116, C118A/G12C); experiment: Coupled nucleotide exchange assay (SOS-mediated nucleotide exchange, AlphaScreen); type: biochemical; conditions: 5 min compound pre-incubation; for IC50: read-out: Coupled exchange IC50 (5 min; μM)
# GDP-bound KRAS protein (aa 1-169), containing both G12C and C118A amino acid substitutions, sequence (P01116 other isoform, or with tags, fused parts or gaps G12C/C118A): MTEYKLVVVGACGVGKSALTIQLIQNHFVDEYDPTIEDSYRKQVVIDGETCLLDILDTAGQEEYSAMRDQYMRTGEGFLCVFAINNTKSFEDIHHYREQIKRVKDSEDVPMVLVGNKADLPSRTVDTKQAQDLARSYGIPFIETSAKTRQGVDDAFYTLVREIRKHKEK
# [3] = tested on: Phosphorylation of ERK1/2 in MIA PaCa-2 cells; experiment: Phospho-ERK1/2 MSD assay in MIA PaCa-2 cells; type: cell-based; conditions: read-out: p-ERK IC50 (2 h, MiaPaCa-2; μM), 2 h compound treatment, MIA PaCa-2 cells, EGF stimulated
# How it was run: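 Phospho-ERK1/2 measured by MSD electrochemiluminescence kit in RIPA lysates of MIA PaCa-2 cells. Cells were treated with compound titrations for 2 or 4 h at 37 °C, 5% CO2, followed by a 10 min pulse of 10 ng/mL EGF.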
Compound,IC50 [1],IC50 [2],IC50 [3],"IC50 ([1]; Homo sapiens, A549, 2 h)","IC50 ([3]; Homo sapiens, MIA PaCa-2, 2 h)",Coupled exchange IC50 (5 min; μM) [2]
"C=CC(=O)N1C[C@H](C)N(c2nc(=O)n(-c3c(Cl)ncnc3C(C)C)c3nc(-c4ccccc4F)c(Cl)cc23)C[C@H]1C (single isomer, unassigned) [Example 102-5-1]",> 7.5 µM,0.031 µM,0.058 µM,,,
"C=CC(=O)N1C[C@H](C)N(c2nc(=O)n(-c3c(C)ccnc3C(C)C)c3nc(-c4ccccc4N(C)C)c(Cl)cc23)C[C@H]1C (atropisomer, axis not shown; (M)) [Example 92-19, (M)-6-Chloro-7-[2-(dimethylamino)phenyl]-4-[(2S,5R)-2,5-dimethyl-4-prop-2-enoyl-piperazin-1-yl]-1-(2-isopropyl-4-methyl-3-pyridyl)pyrido [2,3-d]pyrimidin-2-one]",,0.044 µM,,> 7.5 µM,0.027 µM,
"C=CC(=O)N1C[C@H](C)N(c2nc(=O)n(-c3c(Cl)ncnc3C(C)C)c3nc(-c4ccccc4C)c(Cl)cc23)C[C@H]1C (single isomer, unassigned) [Example 102-6-1]",> 7.5 µM,0.094 µM,0.056 µM,,,
"C=CC(=O)N1C[C@H](C)N(c2nc(=O)n(-c3c(CC)ncnc3C(C)C)c3nc(-c4ccccc4C)c(Cl)cc23)C[C@H]1C [Example 109-2, 6-Chloro-4-[(2S,5R)-2,5-dimethyl-4-prop-2-enoyl-piperazin-1-yl]-1-(4-ethyl-6-isopropyl-pyrimidin-5-yl)-7-(o-tolyl)pyrido[2,3-d]pyrimidin-2-one]",,,,> 7.5 µM,0.098 µM,0.107 µM
"C=CC(=O)N1C[C@H](C)N(c2nc(=O)n(-c3c(C)ccnc3C(C)C)c3nc(-c4c(F)cccc4Cl)c(F)cc23)C[C@H]1C (atropisomer, axis not shown; (M)) [Example 94-12, (M)-7-(2-Chloro-6-fluoro-phenyl)-4-[(25,5R)-2,5-dimethyl-4-prop-2-enoyl-piperazin-1-yl]-6-fluoro-1-(2-isopropyl-4-methyl-3-pyridyl)pyrido [2,3-d]pyrimidin-2-one]",,0.184 µM,,> 7.5 µM,0.128 µM,
"C=CC(=O)N1C[C@H](C)N(c2nc(=O)n(-c3c(C)ccnc3C(C)C)c3nc(-c4ccccc4N)c(Cl)cc23)C[C@H]1C (atropisomer, axis not shown; (M)) [Example 92-12, (M)-7-(2-Aminophenyl)-6-chloro-4-[(2S,5R)-2,5-dimethyl-4-prop-2-enoyl-piperazin-1-yl]-1-(2-isopropyl-4-methyl-3-pyridyl)pyrido[2,3-d]pyrimidin-2-one]",,0.019 µM,,> 7.5 µM,0.022 µM,
"C=CC(=O)N1C[C@H](C)N(c2nc(=O)n(-c3c(C(C)C)ccnc3C(C)C)c3nc(-c4ccccc4C(F)(F)F)c(Cl)cc23)C[C@H]1C (single isomer, unassigned) [Example 124-3]",,0.028 µM,,> 7.5 µM,0.032 µM,
"C=CC(=O)N1C[C@H](C)N(c2nc(=O)n(-c3c(N)ncnc3C(C)C)c3nc(-c4ccccc4F)c(Cl)cc23)C[C@H]1C (single isomer, unassigned) [Example 189-1]",,,,> 7.5 µM,0.072 µM,0.036 µM
"C=CC(=O)N1C[C@H](C)N(c2nc(=O)n(-c3c(N(C)C)ccnc3C(C)C)c3nc(-c4ccccc4C)c(Cl)cc23)C[C@H]1C (single isomer, unassigned) [Example 103-7-2]",> 7.5 µM,0.088 µM,0.052 µM,,,
"C=CC(=O)N1C[C@H](C)N(c2nc(=O)n(-c3c(C)ccnc3C(C)C)c3nc(-c4c(F)cccc4NC(C)=O)c(Cl)cc23)C[C@H]1C (atropisomer, axis not shown; (M)) [Example 129-1, (M)-N-[2-[6-Chloro-4-[(2S,5R)-2,5-dimethyl-4-prop-2-enoyl-piperazin-1-yl]-1-(2-isopropyl-4-methyl-3-pyridyl)-2-oxo-pyrido[2,3-d]pyrimidin-7-yl]-3-fluoro-phenyl]acetamide]",> 7.5 µM,0.054 µM,0.124 µM,,,
"C=CC(=O)N1[C@H](C)CN(c2nc(=O)n(-c3c(C(C)C)ccnc3C(C)C)c3nc(-c4ccccc4C)c(Cl)cc23)C[C@@H]1C [Example 124-11, 6-Chloro-1-(2,4-diisopropyl-3-pyridyl)-4-[(3R,5S)-3,5-dimethyl-4-prop-2-enoyl-piperazin-1-yl]-7-(o-tolyl)pyrido[2,3-d]pyrimidin-2-one]",,0.075 µM,,> 7.5 µM,0.098 µM,
"C=CC(=O)N1C[C@H](C)N(c2nc(=O)n(-c3c(C(C)C)cnnc3C(C)C)c3nc(-c4ccccc4F)c(Cl)cc23)C[C@H]1C (single isomer, unassigned) [Example 205-1]",,,,> 7.5 µM,0.07 µM,0.098 µM
"C=CC(=O)N1C[C@H](C)N(c2nc(=O)n(-c3c(C(C)C)ncnc3C(C)C)c3nc(-c4ccc(C#N)cc4F)c(Cl)cc23)C[C@H]1C [Example 100-2, 4-[6-Chloro-1-(4,6-diisopropylpyrimidin-5-yl)-4-[(2S,5R)-2,5-dimethyl-4-prop-2-enoyl-piperazin-1-yl]-2-oxo-pyrido[2,3-d]pyrimidin-7-yl]-3-fluoro-benzonitrile]",,0.324 µM,,> 7.5 µM,0.298 µM,
"C=CC(=O)N1C[C@H](C)N(c2nc(=O)n(-c3c(C)ccnc3C(C)C)c3nc(-c4ccccc4[N+](=O)[O-])c(Cl)cc23)C[C@H]1C (atropisomer, axis not shown; (M)) [Example 92-36, (M)-6-Chloro-4-[(2S,5R)-2,5-dimethyl-4-prop-2-enoyl-piperazin-1-yl]-1-(2-isopropyl-4-methyl-3-pyridyl)-7-(2-nitrophenyl) pyrido[2,3-d]pyrimidin-2-one]",,0.275 µM,,1.87 µM,0.133 µM,
"C=CC(=O)N1[C@H](C)CN(c2nc(=O)n(-c3c(C)cc(N)nc3C(C)C)c3nc(-c4c(O)cccc4F)c(F)cc23)C[C@@H]1C (single isomer, unassigned) [Example 123-2]",,0.4 µM,,> 7.5 µM,0.26 µM,
"C=CC(=O)N1CCN(c2nc(=O)n(-c3c(C)ccnc3C(C)C)c3nc(-c4c(N)cccc4F)c(Cl)cc23)CC1CC#N (atropisomer, axis not shown; (M)) [Example 144-1, (M)-2-[4-[7-(2-Amino-6-fluoro-phenyl)-6-chloro-1-(2-isopropyl-4-methyl-3-pyridyl)-2-oxo-pyrido[2,3-d]pyrimidin-4-yl]-1-prop-2-enoyl-piperazin-2-yl]acetonitrile]",> 7.5 µM,0.166 µM,0.23 µM,,,
"C=CC(=O)N1C[C@H](C)N(c2nc(=O)n(-c3c(C)ccnc3C(C)C)c3nc(-c4ccccc4C(=O)O)c(Cl)cc23)C[C@H]1C (atropisomer, axis not shown; (M)) [Example 92-29, (M)-2-[6-Chloro-4-[(2S,5R)-2,5-dimethyl-4-prop-2-enoyl-piperazin-1-yl]-1-(2-isopropyl-4-methyl-3-pyridyl)-2-oxo-pyrido[2,3-d]pyrimidin-7-yl]benzoic acid]",,0.139 µM,,> 7.5 µM,10 µM,
"C=CC(=O)N1[C@H](C)CN(c2nc(=O)n(-c3c(C(C)C)cnnc3C(C)C)c3nc(-c4ccccc4F)c(Cl)cc23)C[C@@H]1C [Example 206-2, 4-(cis-4-Acryloyl-3,5-dimethylpiperazin-1-yl)-6-chloro-1-(3,5-diisopropylpyridazin-4-yl)-7-(2-fluorophenyl)pyrido[2,3-d]pyrimidin-2(1H)-one]",> 7.5 µM,,0.139 µM,,,0.098 µM
"C=CC(=O)N1C[C@H](C)N(c2nc(=O)n(-c3c(C(C)C)nc(CN4CCCC4)nc3C(C)C)c3nc(-c4ccccc4F)c(Cl)cc23)C[C@H]1C [Example 163, 6-Chloro-1-[4,6-diisopropyl-2-(pyrrolidin-1-ylmethyl)pyrimidin-5-yl]-4-[(2S,5R)-2,5-dimethyl-4-prop-2-enoyl-piperazin-1-yl]-7-(2-fluorophenyl)pyrido[2,3-d]pyrimidin-2-one]",,0.127 µM,,> 7.5 µM,0.055 µM,
"C=CC(=O)N1C[C@H](C)N(c2nc(=O)n(-c3c(C(C)C)cnnc3C(C)C)c3nc(-c4ccccc4F)c(Cl)cc23)C[C@H]1C [Example 205, 4-((2S,5R)-4-Acryloyl-2,5-dimethylpiperazin-1-yl)-6-chloro-1-(3,5-diisopropylpyridazin-4-yl)-7-(2-fluorophenyl)pyrido[2,3-d]pyrimidin-2(1H)-one]",,0.08 µM,,> 7.5 µM,0.095 µM,
"C=CC(=O)N1C[C@H](C)N(c2nc(=O)n3c4nc(c(Cl)cc24)-c2ccccc2C/C=C\Cc2ccccc2-3)C[C@H]1C (atropisomer, axis not shown; (P)) [Example 146-3]",,7.03 µM,4.26 µM,> 7.5 µM,,
"C=CC(=O)N1C[C@H](C)N(c2nc(=O)n(-c3c(C)ncnc3C(C)C)c3nc(-c4ccccc4F)c(Cl)cc23)C[C@H]1C [Example 194, 4-((2S,5R)-4-Acryloyl-2,5-dimethylpiperazin-1-yl)-6-chloro-7-(2-fluorophenyl)-1-(4-isopropyl-6-methylpyrimidin-5-yl)pyrido[2,3-d]pyrimidin-2(1H)-one]",,0.186 µM,,> 7.5 µM,0.048 µM,
